Results as given in patent US6340705B1, “Use of α-linolenic acid metabolites for treatment or prevention of cancer” (Monsanto Technology, LLC, priority 1999, dated 2002).
Marks after values point to notes of the source that are not given here.

How the values were obtained:
[1] = test system: Min/+ mouse model of intestinal cancer; assay: Intestinal polyp formation in the Min/+ mouse model of intestinal cancer; format: in vivo; set-up: Avg. large intestine tumor size: unit not given here; conditions: Min/+ mice
Experimental: The efficacy of select n-3 and n-6 polyunsaturated fatty acids was evaluated in the Min/+ mouse model of intestinal cancer. The following fatty acid ethyl esters were tested for their effect on intestinal polyp formation: 1) ALA-EE; 2) SDA-EE; 2) EPA-EE; 4) DHA-EE; 5) GLA-EE ([…], 18:3 n-6); and 6) CLA-EE (conjugated linoleic acid; c9t11-18:2 (77%)+c9c11-18:2 (18%)+other isomers (5%)).
These fatty acid ethyl esters were added to the US17 diet to provide 10 g/day human equivalent dose (3% wt.). The NSAID, sulindac (320 ppm), served as the positive control. In order to maintain a 17% fat (37 en%) content in the US17 diet, oleic acid (18:1 n-9) was removed from the US17 diet in an amount equal to the amount of the fatty acid ethyl ester that was added. Mice were received at approximately five weeks of age and were fed the test diets upon receipt. After seven weeks on the respective test diet, the mice were sacrificed and the intestinal polyps were counted and measured.

HepG2 cells [2] = assay: Uptake of 14C-ALA, 14C-SDA and 14C-EPA by HepG2 cells; format: in vitro ADME
Experimental: To a culture medium containing HepG2 cells was added 20 μM ^14C-ALA, ^14C-SDA or ^14C-EPA complexed to fatty acid free BSA. The amount of ^14C-ALA, ^14C-SDA or ^14-EPA EPA Taken up by the HepG2 cells was measured 6 hours, 24 hours and 48 hours after addition of the fatty acid. A scintillation counter was used to measure the total amount of radioactivity in the HepG2 cells and the amount remaining in the medium.

[3] = Arachidonic acid level in phospholipid fraction of small intestine, Min/+ mouse; format: in vivo; conditions: Min/+ mice, fed as ethyl esters, 10 g/day human equivalent dose in US17 diet
Experimental: Fatty acid composition was determined in the small intestine because that is where the vast majority of polyps form. These fatty acid esters were added to the US17 diet as discussed in Example 8. The arachidonic acid level in the phospholipid fraction of the small intestines of the mice was determined by gas chromatography. In FIG. 11, bars labeled with the same letter (e.g., control and CLA, both labeled with a “b”) have values which, statistically, are not different.

HepG2 cells [4] = assay: Metabolism of radiolabeled fatty acids to long chain n-3 PUFAs (EPA, DHA) in HepG2 cells; format: in vitro ADME
Experimental: HepG2 cells were allowed to take up ^14C-ALA or ^14C-SDA as described in Example 2. The total amount of ^14C-EPA, ^14C-DPA and ^14C-DHA present in the HepG2 cells was measured 6 hours, 24 hours and 48 hours after addition of the fatty acid by argentation thin layer chromatography (TLC). The amount of each fatty acid present as a band on the TLC plate was quantified by electronic autoradiography using an Instant Imager supplied by Packard (Meriden, Conn.).
HepG2 cells were allowed to take up ^14C-ALA, ^14C-SDA or ^14C-EPA as described in Example 2. The amount of ^14C-EPA and ^14C-DHA present in the HepG2 cells was measured 6 hours, 24 hours and 48 hours after addition of the fatty acids by argentation thin layer chromatography (TLC) as described in Example 3. The amount of ^14C-EPA and ^14C-DHA present as bands on the TLC plate were quantified by electronic autoradiography using an Instant Imager as described in Example 3.

HT-29 cells = assay: Primary tumor growth in the nude mouse/HT-29 cancer model; format: in vivo; conditions: nude mice, HT-29 cells in footpad, US17 diet containing stearidonic acid 3% (10 g/day human equivalent dose), after 35 days
Experimental: The efficacy of stearidonic acid (18:4n-3) in inhibiting primary tumor growth was evaluated using the nude mouse/HT-29 model. The nude mouse/HT-29 model has been described previously. Hernandez-Alcoceloa R., Fernandez, F., Lacal, J C, Cancer Res., 59(13), 312-18 (1999); Fantini, J., Cancer J., 5(2) (1992).
Nude (i.e., immunodeficient) mice were fed the US17 diet for three weeks. HT-29 cells were cultured in RPMI-1640 medium supplemented with fetal bovine serum, penicillin, and streptomycin (Gibco, Grand Island, N.Y.) and maintained in a CO2 atmosphere at 37° C. After achieving the optimal cell density, the HT-29 cells were rinsed and then suspended in phosphate buffered saline (PBS). A cell suspension was made in MATRIGEL (Becton Dickinson Labware, Bedford, Mass.). The suspension was ⅔ by volume cells in PBS and ⅓ by volume MATRIGEL. MATRIGEL provides an extracellular matrix secreted by […]. The matrix contains angiogenic and cell proliferation growth factors that aid in HT-29 cell attachment and proliferation as a primary tumor.
One million cells were injected in a 30 μl volume into the subplanter area of the righthind footpad of the nude mice. […] The amount of primary tumor growth was measured by measuring the change in mouse footpad volume over time. Footpad volume was measured with a plethysmometer (Ugo Basile, Camerio-Varese, Italy).

[5] = format: in vivo, rats; conditions: rats, US17 diet with 1, 3 or 10 g/day human equivalent dose, one month
Source text: Mice were fed a US17 diet containing α-linolenic acid ethyl ester (ALA-EE), stearidonic acid ethyl ester (SDA-EE), eicosapentaenoic acid ethyl ester (EPA-EE), or docosahexaenoic acid ethyl ester (DHA-EE) in an amount equivalent to a human western diet containing 1, 3 or 10 g/day of the fatty acid (g/day human equivalent dose). In order to maintain a 17% fat (37 en %) content in the US17 diet, oleic acid (18:1 n-9), as an oleic acid cassette, was removed from the US17 diet in an amount equal to the amount of fatty acid ester that was added. Oleic acid was selected as the replacement fatty acid because literature reports indicate that oleic acid is neutral with respect to inflammation and cancer.
After one month on the respective US17-based diets, the mice were sacrificed and the fatty acid composition of each of their livers was analyzed by gas chromatography. The results of these analyses are pressured in FIG. 8.
The method used was as described in Example 6 except that rats were used in place of mice.

[6] = large intestine and small intestine, versus US17 diet, 10 g/day human equivalent dose
[7] = 10 g/day human equivalent dose (3% wt.) or sulindac 320 ppm, seven weeks, mean ± SEM
[8] = 10 g/day human equivalent dose (3% wt.) or sulindac 320 ppm, seven weeks, mean ± SEM, tumor number × tumor size
[9] = fatty acid ethyl ester 10 g/day human equivalent dose (3% wt.) in US17 diet or sulindac 320 ppm, seven weeks
[10] = large and small intestine, 10 g/day human equivalent dose (3% wt.) or sulindac 320 ppm, seven weeks, mean ± SEM

radiolabeled fatty acid taken up by the cells (HepG2 cells [2]; 20 μM complexed to fatty acid free BSA, within the first six hours of incubation): Approximately 95%
uptake by HepG2 cells, comparison (FIG. 1) (HepG2 cells [2]; 20 μM, 6, 24 and 48 hours): taken up equally
metabolism to long chain n-3 PUFAs, comparison (FIG. 2 to FIG. 3) (HepG2 cells [4]): faster than that of ALA
rate of metabolism to EPA and further to DHA relative to ALA (HepG2 cells [4]): approximately twice that of ALA
metabolized to 14C-fatty acid end products (EPA or DHA) or intermediates (20:4 n-3, 22:5 n-3, 24:5 n-3) (HepG2 cells [4]; 20 μM): ~95%
SMILES: CC/C=C\C/C=C\C/C=C\C/C=C\CCCCC(=O)O [SDA, stearidonic acid]
effectiveness in inhibiting polyp formation and development in the large intestine ([1]; 10 g/day human equivalent dose): comparable to that of sulindac
effectiveness in inhibiting polyp formation and development in the small intestine ([1]; 10 g/day human equivalent dose): comparable to that of EPA
decrease in polyp load (number×size) [1, 6]: 56%
decrease in polyp number [1, 6]: 47%
decrease in polyp size [1, 6]: 18%
Total small intestine tumors/group ([1]; 10 g/day human equivalent dose (3% wt.) or sulindac 320 ppm, seven weeks): 185
Avg. large intestine tumors/mouse [1, 7]: 0.2 ± 0.1^d
Avg. small intestine tumor size [1, 7]: 1.07 ± 0.02^ab mm
Avg. small intestine tumors/mouse [1, 7]: 18.5 ± 1.9^c
Avg. large intestine tumor size ([1]; 10 g/day human equivalent dose (3% wt.) or sulindac 320 ppm, seven weeks, mean ± SEM, only animals bearing colonic tumors): 1.50 ± 0.00^b
Avg. large intestine tumor load [1, 8]: 0.30 ± 0.20^d mm
Avg. small intestine tumor load [1, 8]: 19.90 ± 2.11^cd mm
Total large intestine tumors/group [1, 9]: 2
Total large intestine tumors/group, figure in brackets (animals bearing tumors/animals in group) [1, 9]: 2/10
Total Avg. overall tumor load [1, 10]: 20.19 ± 2.24^cd mm
Total Avg. overall tumor size [1, 10]: 1.08 ± 0.02^d mm
Total Avg. tumors/mouse [1, 10]: 18.7 ± 1.9^a
decreasing the level of arachidonic acid in the small intestine (phospholipid fraction, FIG. 11) [3]: more effective than ALA, EPA and DHA
less primary tumor growth (footpad volume) than US17 diet (HT-29 cells): 33%
level of arachidonic acid in liver tissue (FIG. 9) [5]: greater decrease in the level of arachidonic acid than did either ALA or EPA
